# According to publication PMC2765504 (Journal of natural products, 2009):
# Target: T1, EncN (Streptomyces maritimus, UniProt Q9KHK1)
# T1 sequence (Q9KHK1 1-522): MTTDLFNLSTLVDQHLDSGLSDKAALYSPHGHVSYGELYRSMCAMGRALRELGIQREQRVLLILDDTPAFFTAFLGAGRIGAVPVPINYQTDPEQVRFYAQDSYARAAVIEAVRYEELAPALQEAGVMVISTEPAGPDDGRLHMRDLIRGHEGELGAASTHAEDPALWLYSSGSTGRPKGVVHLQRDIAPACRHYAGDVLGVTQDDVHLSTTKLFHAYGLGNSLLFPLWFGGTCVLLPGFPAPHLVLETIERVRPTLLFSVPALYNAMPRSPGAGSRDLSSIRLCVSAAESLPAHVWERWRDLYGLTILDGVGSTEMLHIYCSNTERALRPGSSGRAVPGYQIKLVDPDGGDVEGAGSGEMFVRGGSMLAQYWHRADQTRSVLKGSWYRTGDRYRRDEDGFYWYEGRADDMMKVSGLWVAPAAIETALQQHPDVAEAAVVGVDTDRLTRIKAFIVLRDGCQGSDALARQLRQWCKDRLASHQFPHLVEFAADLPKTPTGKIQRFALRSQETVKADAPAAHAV
# T1 sequence (Q9KHK4 1-82 partner): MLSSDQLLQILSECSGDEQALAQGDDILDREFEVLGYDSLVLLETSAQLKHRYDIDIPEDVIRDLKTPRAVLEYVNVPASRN
# Experiment: FTMS of acyl loading on holo-EncC
# Assay type: biochemical
# Conditions: ATP 10 mM, EncN 2 uM, holo-EncC 20 uM
Structure (SMILES),FTMS of acyl loading on holo-EncC (benzoic acid 10 mM),FTMS of acyl loading on holo-EncC (benzoic acid omitted)
O=C(O)c1ccccc1 [benzoic acid],"Upon incubation with EncN, benzoate was transferred in typical nonribosomal peptide synthetase fashion",
O=C(O)c1ccccc1O [salicylic acid],,"in its absence, EncN preferentially activates and loads salicylate"
